Measurements from patent US7897340B2, “Use of tumor susceptibilty gene 101 (TSG 101) as a prognostic and diagnostic marker” (The Board of Regents of the University of Texas System, priority 2006, dated 2011).

Key:
TSG101 = TSG101 protein levels by immunoblotting in T29H cells; assay type: cell-based, human; details: inhibitor pretreatment 24 hrs (FTI-277 10 μM, U0126 20 μM, LY294002 10 μM)
Excerpt: Antigen-antibody complexes were detected by enhanced chemiluminescence (Pierce).

p14ARF = details: T29H cells
Description: Protein concentrations of cell lysates were assayed with the Bio-Rad protein assay reagent. Equal amounts of protein were loaded onto 12% SDS polyacrylamide mini-gels (Bio-Rad) or 10% Tricine-SDS gels and transferred to PVDF membranes. PVDF blots and the remaining polyacrylamide gels were stained with Ponceau S and Coomassie Blue, respectively, to ensure equal loading and even transfer of the samples. After being blocked overnight in 5% milk in TBS-Tween, blots were incubated with corresponding primary antibodies for 1.5 hrs, followed by HRP-conjugated secondary antibody (1:4000, Bio-Rad) for 45 min. Antigen-antibody complexes were detected by enhanced chemiluminescence (Pierce).

TSG101 mRNA = TSG101 mRNA levels by semi-quantitative PCR in T29 and T29H cells; assay type: cell-based, human; details: FTI-277 10 μM 24 hours
Description: Total RNA was isolated from cells using Trizol reagent (Invitrogen), and concentration was determined by absorbance at 260 nm. Real-Time PCR analysis was carried out using fluorescent TSG101 primers on an Applied Biosystems Prism 7000 Sequence Detection System. RT-PCR was carried out for TSG101 and HIF-1α using 1 μg of isolated total RNA under the following parameters: 94° C. 1 min, 57° C. 1 min and 72° C. 1.5 min, 35 cycles. Primers used for RT-PCR were TSG10 forward [NT] ID NO: 1), reverse [NT] ID NO: 2), CITED2 forward [NT] ID NO: 3), reverse [NT] ID NO: 4), HIF-1a ? forward [NT] ID NO: 5), reverse [NT] ID NO: 6). […] This up-regulation was further confirmed by immunoblotting analysis of equal amount of independent total protein lysates from pooled T29 and […] cells using an antibody specific to TSG101 (FIG. 1C). To check if the apparent increase in TSG101 protein was due to the transcriptional regulation of the TSG101 gene, the levels of TSG101 mRNA in T29 and […] cells were examined by semiquantitive (FIG. 1D) and real-time PCRs (FIG. 1E). […] Furthermore, the levels of TSG101 mRNA were not affected by FTI-277, a farnesyl transferase inhibitor that blocks the activation of RAS (FIG. 1D).

RAS-GTP = details: T29H cells, data not shown

Row | Structure (SMILES) | TSG101 protein levels (TSG101) | cellular level of p14ARF (p14ARF) | levels of TSG101 mRNA (TSG101 mRNA) | RAS-GTP levels (RAS-GTP)
1 | N#CC(=C(/N)Sc1ccccc1N)/C(C#N)=C(\N)Sc1ccccc1N [U0126] | significantly decreased | suppressed | – | –
2 | COC(=O)[C@H](CCSC)NC(=O)c1ccc(NC[C@@H](N)CS)cc1-c1ccccc1 [FTI-277] | significant decrease | – | not affected | significantly inhibited
